Measurements from paper PMC4716659 (European journal of medicinal chemistry, 2015).
Converted amounts (≈) assume the structure as drawn.

Test system: methicillin-resistant Staphylococcus aureus (MRSA) ATCC 43300
Experiment: MIC, broth microdilution
Assay type: cell-based
Conditions: MRSA ATCC 43300
[1] = Staphylococcus aureus, ATCC43300|MRSA

SMILES	MIC [1] [µg/mL]	MIC [µg/mL]
CCCCc1ccc(-c2nc(C)c(C(=O)NC(=N)NC(=N)N)s2)cc1 [compound 10, 2-(4-Butylphenyl)-N-(N-carbamimidoylcarbamimidoyl)-4-methylthiazole-5-carboxamide]	> 45.8	–
CCCCc1ccc(-c2nc(C)c(C(=O)NNC(=N)N)s2)cc1 [compound 11, 2-(2-(4-Butylphenyl)-4-methylthiazole-5-carbonyl)hydrazinecarboximidamide]	> 42.4	–
CCCCc1ccc(-c2nc(C)c(C(=O)NC[C@@H](O)CO)s2)cc1 [compound 12, (R)-2-(4-Butylphenyl)-N-(2,3-dihydroxypropyl)-4methylthiazole-5-carboxamide]	44.5 (≈ 128 µM)	–
CCCCc1ccc(-c2nc(C)c(C(=O)NCN(C)C)s2)cc1 [compound 13, 2-(4-Butylphenyl)-N-[(dimethylamino)methyl]-4-methylthiazole-5-carboxamide]	44.2 (≈ 133 µM)	–
CCCCc1ccc(-c2nc(C)c(/C(N)=N/O)s2)cc1 [compound 15, (Z)-2-(4-Butylphenyl)-N′-hydroxy-4-methylthiazole-5-carboximidamide]	> 35.1	>37.0
CCCCc1ccc(-c2nc(C)c(-c3nnn[nH]3)s2)cc1 [compound 16, 2-(4-Butylphenyl)-4-methyl-5-(1H-tetrazol-5-yl)thiazole]	> 35.1	>38.3
[H]/N=C(\N)NN=C(C)c1sc(-c2ccc(N)cc2)nc1C [compound 19, (E)-2-(1-(4-Methyl-2-(4-aminophenyl)thiazol-5-yl)ethylidene) hydrazinecarboximidamide]	–	>36.9
CC(=O)c1sc(-c2ccc(-c3cccc4ccccc34)cc2)nc1C [compound 24, 1-(4-Methyl-2-(4-(naphthalen-1-yl)phenyl)thiazol-5-yl)ethanone]	> 43.9	–
